Assay results from patent publication US11022605B2 (priority 2016, dated 2021).

What was measured:
[1] = in vivo; cited from earlier work
[2] = system: colon cancer; settings: cited from earlier work
[3] = system: neuromuscular junction model (motoneurons synapsed onto skeletal muscle); format: cell-based

CC1(C)C(C=C(Cl)Cl)C1C(=O)OCc1cccc(Oc2ccccc2)c1 (stereo not drawn) [1R-cis-, permethrin]
activity of stereoisomer [1]: active

CC1(C)C(C=C(Cl)Cl)C1C(=O)OCc1cccc(Oc2ccccc2)c1 (stereo not drawn) [cis-permethrin]
toxicity relative to trans isomers [1]: about ten times more toxic

CC1(C)C(C=C(Cl)Cl)C1C(=O)OCc1cccc(Oc2ccccc2)c1 (stereo not drawn) [1R-trans-, permethrin]
activity of stereoisomer [1]: active

O=c1[nH]c(=O)n(C2CCCO2)cc1F (stereo not drawn) [Tegafur]
optimal uracil to Tegafur ratio for maximizing 5-FU in the tumor relative to blood [2]: 4 to 1

curare
dip frequency sensitivity [3]: approximately exponential
effect on contractile response [3]: inhibitory based on concentration
form of fitted dose-response curve of muscle contraction [3]: biphasic curve
plateau region of biphasic curve versus stimulation frequency [3]: shrinks exponentially for increasing frequency

O=c1cc[nH]c(=O)[nH]1 [uracil]
effect on toxicity of Tegafur [2]: enhances the toxicity of Tegafur
